What was measured:
S. aureus 133 = assay: Minimum inhibitory concentration (MIC), S. aureus 133; assay type: cell-based, Staphylococcus aureus; settings: S. aureus 133
Experimental: (§1) The minimum inhibitory concentration (MIC) is the minimum concentration of an antibiotic with which the growth of a test microbe is inhibited over 18-24 h. The inhibitor concentration can in these cases be determined by standard microbiological methods (see, for example, The National Committee for Clinical Laboratory Standards. Methods for dilution antimicrobial susceptibility tests for bacteria that grow aerobically; approved standard-fifth edition. NCCLS document M7-A5 [ISBN 1-56238-394-9]. NCCLS, 940 West Valley Road, Suite 1400, Wayne, Pa. 19087-1898 USA, 2000). The test substances are thereby initially provided in 1:2 dilution series into 96-well round-bottom microtiter plates (Greiner) double-concentrated in 50 μl of test medium. The aerobically growing test microbes (e.g. staphylococci and enterococci), which are incubated overnight on Columbia blood agar plates (Becton-Dickinson), are, after resuspension in 0.9% NaCl, adjusted to a microbe count of about 5×10^7 microbes/ml and then diluted 1:150 in cation-adjusted MH medium (test medium). 50 μL of this suspension are pipetted onto the test preparations provided in the microtiter plates. The cultures are incubated at 37° C. for 18-24 hours. For microaerophilically growing microbes (e.g. streptococci), 2% lysed horse blood in the final concentration is added to the medium and the cultures are incubated in the presence of 5% CO2. The lowest substance concentration in each case at which no visible bacterial growth occurs any longer is defined as the MIC and is reported in μg/ml.
(§2) The minimum inhibitory concentration (MIC) is the minimum concentration of an antibiotic with which the growth of a test microbe is inhibited over 18-24 h. The inhibitor concentration can in these cases be determined by standard microbiological methods (see, for example, The National Committee for Clinical Laboratory Standards. Methods for dilution antimicrobial susceptibility tests for bacteria that grow aerobically; approved standard-fifth edition. NCCLS document M7-A5 [ISBN 1-56238-394-9]. NCCLS, 940 West Valley Road, Suite 1400, Wayne, Pa. 19087-1898 USA, 2000). The MIC of the compounds of the invention is determined in the liquid dilution test on the 96-well microtiter plate scale. The bacterial microbes are cultivated in a minimal medium (18.5 mM Na2HPO4, 5.7 mM KH2PO4, 9.3 mM NH4Cl, 2.8 mM MgSO4, 17.1 mM NaCl, 0.033 μg/ml thiamine hydrochloride, 1.2 μg/ml nicotinic acid, 0.003 μg/ml biotin, 1% glucose, 25 μg/ml of each proteinogenic amino acid with the exception of phenylalanine; [H.-P. Kroll; unpublished]) with the addition of 0.4% BH broth (test medium). In the case of Enterococcus faecium L4001, heat-inactivated fetal calf serum (FCS; GibcoBRL, Germany) is added to the test medium in a final concentration of 10%. Overnight cultures of the test microbes are diluted to an OD578 of 0.001 (to 0.01 in the case of enterococci) in fresh test medium, and incubated 1:1 with dilutions of the test substances (1:2 dilution steps) in test medium ([…]). The cultures are incubated at 37° C. for 18-24 hours; enterococci in the presence of 5% CO2.
(§3) The lowest substance concentration in each case at which no visible bacterial growth occurs any longer is defined as the MIC.
(§4) The minimum inhibitory concentration (MIC) is the minimum concentration of an antibiotic with which the growth of a test microbe is inhibited over 18-24 h. The inhibitor concentration can in these cases be determined by standard microbiological methods with modified medium in an agar dilution test (see, for example, The National Committee for Clinical Laboratory Standards. Methods for dilution antimicrobial susceptibility tests for bacteria that grow aerobically; approved standard-fifth edition. NCCLS document M7-A5 [ISBN 1-56238-394-9]. NCCLS, 940 West Valley Road, Suite 1400, Wayne, Pa. 19087-1898 USA, 2000). The bacterial microbes are cultivated on 1.5% agar plates which contain 20% defibrinated horse blood. […]

S. aureus T17 = assay: Minimum inhibitory concentration (MIC), biphenomycin-resistant S. aureus T17; assay type: cell-based, Staphylococcus aureus
Experimental: as §1, §2, §3, §4

E. faecium L4001 = assay: Minimum inhibitory concentration (MIC), E. faecium L4001; assay type: cell-based, Enterococcus faecium; settings: E. faecium L4001; 10% FCS in test medium
Experimental: as §2, §3

S. aureus RN4220 = assay: Resistance rate of S. aureus RN4220 on agar containing biphenomycin B; assay type: cell-based, Staphylococcus aureus; settings: S. aureus RN4220, agar plate containing 2 μg/ml biphenomycin B (10×MIC), 37° C. overnight
Experimental: (§5) The S. aureus Strain RN4220BiR^R is isolated in vitro. For this purpose, 100 μl portions of an S. aureus RN4220 cell suspension (about 1.2×10^8 cfu/ml) are plated out on an antibiotic-free agar plate (18.5 mM Na2HPO4, 5.7 mM KH2PO4, 9.3 mM NH4Cl, 2.8 mM MgSO4, 17.1 mM NaCl, 0.033 μg/ml thiamine hydrochloride, 1.2 μg/ml nicotinic acid, 0.003 μg/ml biotin, 1% glucose, 25 μg/ml of each proteinogenic amino acid with the addition of 0.4% BH broth and 1% agarose) and on an agar plate containing 2 μg/ml biphenomycin B (10×MIC), and incubated at 37° C. overnight. Whereas about 1×10^7 cells grow on the antibiotic-free plate, about 100 colonies grow on the antibiotic-containing plate, corresponding to a resistance rate of 1×10^−5. Some of the colonies grown on the antibiotic-containing plate are tested for the biphenomycin B MIC. One colony with an MIC of >50 μM is selected for further use, and the strain is referred to as RN4220Bi^R.

S. aureus RN4220Bi^R = assay: MIC against biphenomycin-resistant S. aureus RN4220Bi^R; assay type: cell-based, Staphylococcus aureus; settings: colony grown on the antibiotic-containing plate
Experimental: as §5

NC[C@H](O)C[C@@H]1NC(=O)[C@@H](N)Cc2cc(ccc2O)-c2ccc(O)c(c2)C[C@@H](C(=O)O)NC1=O [Biphenomycin B, biphenomycin B, reference compound]
MIC S. aureus 133 (S. aureus 133): <0.03 μ/ml | MIC S. aureus T17 (S. aureus T17; biphenomycin-resistant S. aureus T17): >32 μ/ml | MIC of selected colony (strain T17) (S. aureus T17; colony isolated from kidney of mice treated with biphenomycin B): > 50 µM | MIC E. faecium L4001 (E. faecium L4001): 0.5 μ/ml | resistance rate (S. aureus RN4220): 1×10^−5 | MIC of selected colony (strain RN4220Bi^R) (S. aureus RN4220Bi^R): > 50 µM

From patent publication US20080275018A1, “ANTIBACTERIAL AMIDE-MACROCYCLES V” (AiCuris GmbH & Co. KG, priority 2005, published 2008)
